Reference: publication PMC8231118, “Evaluating the Antioxidants, Whitening and Antiaging Properties of Rice Protein Hydrolysates” (Molecules, 2021)
In brackets after ≈: the same amount, converted by molar mass.

Target: T1, mushroom tyrosinase
T1 construct: gene PPO3
Assay: dopachrome absorbance at […] nm
Format: biochemical
Settings: L-DOPA substrate (1.25 mM solution), 20 mM phosphate pH 6.8, 37 °C, 30 min

IC50: 98 mg/L (≈ 556 µM)
Structure (SMILES): O=C1O[C@H]([C@@H](O)CO)C(O)=C1O [ascorbic acid]
